{
  "source": "patent US20170107207A1",
  "about": "“AMINOPYRAZOLONE DERIVATIVE” (DAIICHI SANKYO COMPANY, LIMITED, priority 2014, published 2017)",
  "key": {"[1]": {"tested_on": "Liver cancer cell line HUH-7 cells", "assay": "Antitumor test, mouse subcutaneous transplantation model, HUH-7", "type": "in vivo", "conditions": "HUH-7 in nude mice, 4 consecutive days, tumor measured three days after final administration", "from_the_text": "(§1) In vivo test of test compound: Antitumor test using mouse subcutaneous transplantation model\nLiver cancer cell line HUH-7 cells were dissociated from a culture flask by trypsin treatment, then suspended in an RPMI1640 medium containing 10% FBS, and then centrifuged to remove the supernatant. The cells were washed with PBS twice and then suspended in BD Matrigel Basement Membrane Matrix (manufactured by BD Biosciences). The cell suspension was subcutaneously transplanted at a dose of 5×10^6 cells/mouse to the right axillary regions of 6-week-old nude mice (CAnN.Cg-Foxn1[nu]/CrlCrlj[Foxn1nu/Foxn1nu], Charles River Laboratories Japan, Inc.). The test was conducted by using cancer-bearing mice having an estimated tumor volume (major axis×minor axis×minor axis/2) of 70 to 180 mm3 and grouping the cancer-bearing mice without significant difference in average estimated tumor volume from a negative control group. The compound of Example 113 was suspended in solvent (EtOH/DMA/Solutol HS-15/PEG400/5% HMPC). The suspension was orally administered to each mouse twice a day (BID) at a dose of 75 or 150 mg/kg for 4 consecutive days. Three days after the final administration date, the tumor sizes were measured.\nThe rate of tumor growth inhibition was also calculated in this test according to the following expression and is shown in a table. […]"}, "[2]": {"tested_on": "Skin cancer cell line A375 cells", "assay": "Antitumor test, mouse subcutaneous transplantation model, A375", "type": "in vivo", "conditions": "A375 in nude mice, 4 consecutive days, tumor measured next day", "from_the_text": "as §1\nSkin cancer cell line A375 cells were dissociated from a culture flask by trypsin treatment, then suspended in a DMEM medium (Life Technologies Corp.) containing 10% FBS, and then centrifuged to remove the supernatant. The cells were washed with this medium twice and then suspended in PBS. The cell suspension was subcutaneously transplanted at a dose of 3×10^6 cells/mouse to the right axillary regions of 6-week-old nude mice (BALB/cAJc1-nu/nu, CLEA Japan, Inc.). The test was conducted by using cancer-bearing mice having an estimated tumor volume (major axis×minor axis×minor axis/2) of 75 to 150 mm3 and grouping the cancer-bearing mice without significant difference in average estimated tumor volume from a negative control group. The compound of Example 113 was suspended in solvent (EtOH/DMA/Solutol HS-15/PEG400/5% HMPC). The suspension was orally administered to each mouse twice a day (BID) at a dose of 50, 100, or 200 mg/kg for 4 consecutive days. On the next day, the tumor sizes were measured.\n(§2) The rate of tumor growth inhibition was also calculated in this test according to the following expression and is shown in a table.\n(§3) Rate of tumor growth inhibition (%)=100−(Average value of the tumor volumes of the test compound administration group)/(Average value of the tumor volumes of the vehicle administration group)×100."}, "[3]": {"tested_on": "Lymphoma cell line RAMOS cells", "assay": "Antitumor test, mouse subcutaneous transplantation model, RAMOS", "type": "in vivo", "conditions": "RAMOS in SCID mice, 4 consecutive days, tumor measured next day", "from_the_text": "as §1\nLymphoma cell line RAMOS cells were suspended in a culture flask and then centrifuged to remove a supernatant. The cells were washed with PBS (phosphate buffered saline, Life Technologies Corp.) twice and then suspended in PBS. The cell suspension was subcutaneously transplanted at a dose of 1×10^7 cells/mouse to the right axillary regions of 6-week-old SCID mice (FOX CHASE SCID C.B.17/Icr-scid/scidJcl, CLEA Japan, Inc.). The test was conducted by using cancer-bearing mice having an estimated tumor volume (major axis×minor axis×minor axis/2) of 200 to 350 mm3 and grouping the cancer-bearing mice without significant difference in average estimated tumor volume from a negative control group. The compound of Example 113 was suspended in a solvent (EtOH/DMA/Solutol HS-15/PEG400/5% HMPC). The suspension was orally administered to each mouse twice a day (BID) at a dose of 25, 50, 100, or 200 mg/kg for 4 consecutive days. On the next day, the tumor sizes were measured.\nas §2, §3"}, "[4]": {"tested_on": "human lymphoma cell line RAMOS cells", "assay": "Cell growth inhibition test using RAMOS cell, MTT assay", "type": "cell-based", "conditions": "50% growth inhibition concentration", "method_in_brief": "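Cells in RPMI1640 with 10% FBS were exposed to compound (DMSO ≤1%) for 3 days at 37° C, 5% CO2. Viability was read by MTT (4 h, formazan in DMSO, OD 540/660 nm) against a day-0 plate; GI50 was interpolated from T/C % growth rates.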"}},
  "data": [
    {"smiles": "CCOc1cc(F)c(Cl)cc1C(=O)NCC(C)(C)CC(=O)Nc1c(COC)n(C)n(-c2ccccc2)c1=O", "note": "[Example 113, 5-Chloro-2-ethoxy-4-fluoro-N-(4-{[5-(methoxymethyl)-1-methyl-3-oxo-2-phenyl-2,3-dihydro-1H-pyrazol-4-yl]amino}-2,2-dimethyl-4-oxobutyl)benzamide]", "values": [
      {"measurement": "Rate of tumor growth inhibition (%)", "setting": "[1]; 75 mg/kg orally BID", "value": 46, "unit": "%"},
      {"measurement": "Rate of tumor growth inhibition (%)", "setting": "[1]; 150 mg/kg orally BID", "value": 63, "unit": "%"},
      {"measurement": "Rate of tumor growth inhibition (%)", "setting": "[2]; 50 mg/kg orally BID", "value": 19, "unit": "%"},
      {"measurement": "Rate of tumor growth inhibition (%)", "setting": "[2]; 100 mg/kg orally BID", "value": 61, "unit": "%"},
      {"measurement": "Rate of tumor growth inhibition (%)", "setting": "[2]; 200 mg/kg orally BID", "value": 86, "unit": "%"},
      {"measurement": "Rate of tumor growth inhibition (%)", "setting": "[3]; 25 mg/kg orally BID", "value": 35, "unit": "%"},
      {"measurement": "Rate of tumor growth inhibition (%)", "setting": "[3]; 50 mg/kg orally BID", "value": 56, "unit": "%"},
      {"measurement": "Rate of tumor growth inhibition (%)", "setting": "[3]; 100 mg/kg orally BID", "value": 72, "unit": "%"},
      {"measurement": "Rate of tumor growth inhibition (%)", "setting": "[3]; 200 mg/kg orally BID", "value": 75, "unit": "%"},
      {"measurement": "GI50", "setting": "[4]", "value": 0.047, "unit": "µM"}
    ]}
  ]
}
